Experiments:
UGT2B10 = target: T1, UGT2B10 (Homo sapiens, UniProt P36537); assay: Inhibition of human recombinant UGT2B10 at 25 uM by fluorescence spectroscopy; parameters: scale not given: the % may be the effect or the level left; conditions: read-out: Activity
T1 sequence (P36537 whole entry): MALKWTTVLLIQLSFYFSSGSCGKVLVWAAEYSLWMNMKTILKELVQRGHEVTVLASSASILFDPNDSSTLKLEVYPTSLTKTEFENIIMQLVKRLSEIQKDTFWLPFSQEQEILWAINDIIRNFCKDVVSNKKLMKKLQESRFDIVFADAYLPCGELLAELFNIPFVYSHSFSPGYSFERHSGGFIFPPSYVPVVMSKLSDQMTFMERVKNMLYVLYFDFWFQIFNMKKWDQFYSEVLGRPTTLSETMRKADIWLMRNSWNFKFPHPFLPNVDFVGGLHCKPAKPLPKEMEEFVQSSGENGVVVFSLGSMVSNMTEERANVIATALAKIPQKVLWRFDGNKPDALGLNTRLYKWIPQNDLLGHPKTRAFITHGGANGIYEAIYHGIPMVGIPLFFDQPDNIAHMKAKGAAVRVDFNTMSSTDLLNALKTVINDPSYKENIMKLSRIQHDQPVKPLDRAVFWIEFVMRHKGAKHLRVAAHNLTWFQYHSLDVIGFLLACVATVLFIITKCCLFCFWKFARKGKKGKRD

UGT2B15 = target: T2, UGT2B15 (Homo sapiens, UniProt P54855); assay: Inhibition of human recombinant UGT2B15 at 25 uM by fluorescence spectroscopy; parameters: scale not given: the % may be the effect or the level left; conditions: read-out: Activity
T2 sequence (P54855 whole entry): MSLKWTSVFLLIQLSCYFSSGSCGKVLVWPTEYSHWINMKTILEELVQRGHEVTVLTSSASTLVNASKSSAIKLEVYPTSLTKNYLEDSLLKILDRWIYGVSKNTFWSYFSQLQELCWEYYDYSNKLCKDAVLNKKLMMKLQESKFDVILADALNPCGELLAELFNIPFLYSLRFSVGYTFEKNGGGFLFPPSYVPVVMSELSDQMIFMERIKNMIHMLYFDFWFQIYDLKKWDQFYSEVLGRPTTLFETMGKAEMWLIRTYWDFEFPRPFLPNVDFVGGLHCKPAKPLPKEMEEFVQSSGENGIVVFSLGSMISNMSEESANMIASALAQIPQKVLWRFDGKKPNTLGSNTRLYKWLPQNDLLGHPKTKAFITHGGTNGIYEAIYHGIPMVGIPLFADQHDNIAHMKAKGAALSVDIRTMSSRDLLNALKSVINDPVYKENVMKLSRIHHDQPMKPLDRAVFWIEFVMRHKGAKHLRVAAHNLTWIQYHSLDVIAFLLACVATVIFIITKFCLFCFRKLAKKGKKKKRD

[1] = target: T3, UDP-glucuronosyltransferase 2B17 (Homo sapiens, UniProt O75795); assay: Inhibition of human recombinant UGT2B17 assessed as reduction of scopoletin glucuronidation
T3 sequence (O75795 whole entry): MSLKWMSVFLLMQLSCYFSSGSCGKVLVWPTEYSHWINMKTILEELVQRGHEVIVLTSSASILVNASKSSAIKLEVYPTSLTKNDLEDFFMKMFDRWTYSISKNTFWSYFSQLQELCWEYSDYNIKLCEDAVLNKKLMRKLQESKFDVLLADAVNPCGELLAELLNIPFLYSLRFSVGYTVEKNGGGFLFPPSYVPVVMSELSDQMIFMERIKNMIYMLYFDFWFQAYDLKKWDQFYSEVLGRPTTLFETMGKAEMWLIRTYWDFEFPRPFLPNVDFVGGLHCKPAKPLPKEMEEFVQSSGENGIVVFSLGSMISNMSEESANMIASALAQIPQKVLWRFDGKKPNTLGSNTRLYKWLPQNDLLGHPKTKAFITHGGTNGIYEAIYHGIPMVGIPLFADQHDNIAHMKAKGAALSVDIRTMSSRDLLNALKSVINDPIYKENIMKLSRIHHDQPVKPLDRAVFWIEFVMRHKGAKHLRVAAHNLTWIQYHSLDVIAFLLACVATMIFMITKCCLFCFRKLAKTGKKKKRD

UGT2B4 = target: T4, UGT2B4 (Homo sapiens, UniProt P06133); assay: Inhibition of human recombinant UGT2B4 at 25 uM by fluorescence spectroscopy; parameters: scale not given: the % may be the effect or the level left; conditions: read-out: Activity
T4 sequence (P06133 whole entry): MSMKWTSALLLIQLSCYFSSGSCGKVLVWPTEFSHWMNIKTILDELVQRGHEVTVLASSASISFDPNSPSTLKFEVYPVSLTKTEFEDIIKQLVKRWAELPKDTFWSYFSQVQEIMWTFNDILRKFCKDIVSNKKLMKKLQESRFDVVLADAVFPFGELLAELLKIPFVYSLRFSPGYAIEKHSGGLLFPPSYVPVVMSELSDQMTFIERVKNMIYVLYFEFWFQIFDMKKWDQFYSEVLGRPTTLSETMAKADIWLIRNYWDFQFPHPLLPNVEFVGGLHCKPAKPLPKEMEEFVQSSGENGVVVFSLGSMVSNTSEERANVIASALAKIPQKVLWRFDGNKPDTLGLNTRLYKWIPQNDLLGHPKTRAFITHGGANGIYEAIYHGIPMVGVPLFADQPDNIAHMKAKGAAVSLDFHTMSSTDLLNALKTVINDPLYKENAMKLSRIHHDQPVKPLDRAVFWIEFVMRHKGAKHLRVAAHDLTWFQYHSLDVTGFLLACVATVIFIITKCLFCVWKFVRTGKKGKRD

UGT2B28 = target: T5, UGT2B28 (Homo sapiens, UniProt Q9BY64); assay: Inhibition of human recombinant UGT2B28 at 25 uM by fluorescence spectroscopy; parameters: scale not given: the % may be the effect or the level left; conditions: read-out: Activity
T5 sequence (Q9BY64 whole entry): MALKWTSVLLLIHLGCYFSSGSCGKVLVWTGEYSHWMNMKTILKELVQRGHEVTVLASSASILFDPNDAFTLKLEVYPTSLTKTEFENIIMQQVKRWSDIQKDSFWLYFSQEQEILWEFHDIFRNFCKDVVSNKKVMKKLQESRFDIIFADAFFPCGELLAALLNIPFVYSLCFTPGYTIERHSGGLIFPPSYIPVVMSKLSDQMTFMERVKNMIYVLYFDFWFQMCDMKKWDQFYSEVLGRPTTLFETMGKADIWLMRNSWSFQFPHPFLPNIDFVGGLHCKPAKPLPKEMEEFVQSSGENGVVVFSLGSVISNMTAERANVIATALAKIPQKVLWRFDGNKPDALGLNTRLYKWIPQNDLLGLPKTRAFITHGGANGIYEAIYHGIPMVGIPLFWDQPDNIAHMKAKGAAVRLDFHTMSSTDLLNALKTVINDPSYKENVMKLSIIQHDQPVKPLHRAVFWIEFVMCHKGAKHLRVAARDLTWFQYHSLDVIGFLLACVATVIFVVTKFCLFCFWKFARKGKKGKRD

UGT2B17 = target: T6, UGT2B17 (Homo sapiens, UniProt O75795); assay: Inhibition of human recombinant UGT2B17 at 25 uM by fluorescence spectroscopy
T6 sequence (O75795 whole entry): T3 sequence (O75795 whole entry)

activity at 25 µM (UGT2B10): 30% | activity at 25 µM (UGT2B15): 30% | Ki [1]: 21.8 µM | activity at 25 µM (UGT2B4): 30% | activity at 25 µM (UGT2B28): 30% | inhibition at 25 µM (UGT2B17): 70%
Compound: CC1(C)CCC[C@]2(C)[C@@H]([C@@H](O)c3ccccc3)[C@H]3CC[C@@H]2[C@H]31
